Values after ≈ are worked out from the molar mass of the structure shown. Where two headings read alike, the source gives them in different places. Marks after values point to notes of the source that are not given here. Starred links: 1 amine or outer side, 2 acyl side, 3 side chain; linkers in the order of their positions; H or OH if unused. Positions of bridges follow the written chain, without caps; N, C: chain ends. Non-standard residues stand in square brackets, D forms with d. Residues, ends and D or L forms follow the SMILES beside them. *: point of attachment. Orn(4R-OH,5R-OH) = O=C([C@H](C[C@@H](O)[C@@H](O)N[*:3])N[*:1])[*:2]; Tetradecanoyl(10R,12S-Me2) = CC[C@H](C)C[C@H](C)CCCCCCCCC(=O)*; hTyr(3S-OH,4S-OH) = N[C@H](C(=O)O)[C@H](O)[C@@H](O)c1ccc(O)cc1; Gln(3R-OH) = NC(=O)C[C@@H](O)[C@H](N)C(=O)O; Pro(3S-OH) = O=C(O)[C@H]1NCC[C@@H]1O; Hyp = O=C(O)[C@@H]1C[C@@H](O)CN1
Experiments:
[1] = tested on: C. parapsilosis 630 ATCC 90018; assay: MIC by broth microdilution against C. parapsilosis; assay type: cell-based
Protocol: (§1) MIC values (μg/mL) of echinocandin class compounds of the invention against various Candida and Aspergillus species were obtained as follows. Test organisms were obtained from the American Type Culture Collection (Manassas, Va.). The isolates were maintained at −80 ° C., then thawed and sub-cultured one day prior to testing (seven days for Aspergillus strains).
(§2) The mouse serum was heat-inactivated for 30 minutes at 56° C., and filtered through a 0.2 μm low protein binding filter unit prior to use.
(§3) MIC values were determined using broth microdilution. The wells of the daughter plates ultimately contained 180 μL of RPMI-1640 medium with and without mouse serum, 10 μL of drug solution, and 10 μL of yeast or fungal inoculum.
(§4) Prior to susceptibility testing, fungal isolates were removed from frozen storage, thawed at room temperature, and subcultured to Potato Dextrose Agar. The Candida strains were incubated overnight at 35° C. and the Aspergillus strains for 7 days at 25° C. Yeast colonies were inoculated into sterile saline and adjusted to the turbidity of a 0.5 McFarland standard. Inoculums from Aspergillus strains were prepared by washing the surface of an agar slant with 1 mL of sterile saline containing 0.05% of Tween 20. The resulting colloidial suspensions were adjusted to an optical density of 0.09 to 0.11 at λ 625 nm.
(§5) Both the yeast and filamentous fungus suspensions were further diluted 1:100 in RPMI-1640 medium and dispensed into sterile reservoirs and used to inoculate the daughter plates. 10 μL of standardized inoculum was delivered into each well. This yielded a final cell concentration in the daughter plates of approximately 2.5×10^3 colony-forming units/mL. Plates were incubated at 35° C. for approximately 48 hr.
(§6) Following incubation, microplates were viewed from the bottom using a plate viewer.

A. flavus 626 ATCC 64025 = assay: MIC by broth microdilution against A. flavus; assay type: cell-based; settings: 48 hr, growth reduction of 50%
Protocol: as §1, §2, §3, §4, §5, §6

C. albicans R303 = assay: Mouse candidiasis infection model, C. albicans density in kidneys; assay type: in vivo, female CD-1 mice; settings: kidneys at 24 hr; for Difference from 24-h control / Mean log10 CFU/kidneys (±SEM): Fourth run
Protocol: The objective of these studies was to evaluate the efficacy of test compounds in the mouse candidiasis infection model.
The strain, C. albicans R303 was transferred from frozen storage onto Sabauroud dextrose agar (SDA) plates and grown for ˜24 hr at 35° C. The inoculum was prepared by transferring colonies from the plate to phosphate buffered saline (PBS) and the concentration adjusted to 10^6 CFU/mL with the aid of a spectrophotometer. The stock was diluted 1:9 to prepare the inoculum. Prior to each run the concentration was verified using the dilution plate count method.
The female CD-1 mice used in this study were obtained from Charles River Laboratories, Portage, MI. The animals were approximately seven-weeks-old at the start of the study and weighed about 16-26 g.
In one approach, mice were made neutropenic with IP injections of cyclophosphamide (150 mg/kg in 10 mL/kg) at 4 and 1 day before inoculation. Each animal was inoculated with the appropriate concentration by injecting 0.1 mL of inoculum into a tail vein. The test compounds were administered IP at 2 hr after infection.
The kidneys were collected from four mice in control group 1 (untreated) at 2 hr after infection, and from the remaining mice in the study at 24 hr after infection. Kidneys were removed aseptically from each mouse and were combined in a sterile tube. An aliquot (2 mL) of sterile PBS was added to each tube and the contents homogenized with a tissue homogenizer (Polytron 3100). Serial dilutions of the tissue homogenates were conducted and 0.1 mL aliquots were spread on SDA plates and the plates incubated at 35° C. overnight. The CFU/kidneys were determined from colony counts. Data were analyzed using one-way ANOVA with the Tukey-Kramer Multiple Comparisons Test (GraphPad InStat version 3.06, GraphPad Software, San Diego, Calif.).
Treatments were administered at 2 hr after infection with 2.1×10^5 CFU/mL of the organism. Data are the means of four mice.
Treatments were administered at 2 hr after infection with 6.4×10^5 CFU/mL of the organism. Data are the means of four mice.
Treatments were administered at 2 hr after infection with 3.8×10^5 CFU/mL of the organism. Data are the means of four mice.
Treatments were administered at 2 hr after infection with 3.8×10^5 CFU/rnL of the organism. Data are the means of four mice.

[2] = tested on: C. albicans 104 ATCC 90028; assay: MIC by broth microdilution against C. albicans; assay type: cell-based
Protocol: as §1, §2, §3, §4, §5, §6

[3] = First run, 1 mg/kg IP 2 hr after infection
[4] = First run, 1 mg/kg IP 2 hr after infection, neutropenic mice
[5] = First run, 5 mg/kg IP 2 hr after infection
[6] = First run, 5 mg/kg IP 2 hr after infection, neutropenic mice
[7] = 0.5 mg/kg IP 2 hr after infection
[8] = 1.5 mg/kg IP 2 hr after infection
[9] = 4.5 mg/kg IP 2 hr after infection
[10] = Second run, 1 mg/kg IP 2 hr after infection

| SMILES | MIC ([1]; 0% mouse serum, 48 hr) | MIC ([1]; 50% mouse serum, 48 hr) | MIC (A. flavus 626 ATCC 64025; 0% mouse serum) | MIC (A. flavus 626 ATCC 64025; 50% mouse serum) | Difference from 24-hr control (C. albicans R303; [3]) | Mean log10 CFU/kidneys (±SD) (C. albicans R303; [4]) | Difference from 24-hr control (C. albicans R303; [5]) | Mean log10 CFU/kidneys (±SD) (C. albicans R303; [6]) | MIC ([2]; 0% mouse serum, 48 hr) | MIC ([2]; 50% mouse serum, 48 hr) | further results |
| --- | --- | --- | --- | --- | --- | --- | --- | --- | --- | --- | --- |
| CCCCCOc1ccc(-c2ccc(-c3ccc(C(=O)NC4CC(O)C(OCCCCCCOCCOCCOCCOCCOCCOCCOCCOC)NC(=O)C5C(O)C(C)CN5C(=O)C(C(C)O)NC(=O)C(C(O)C(O)c5ccc(O)cc5)NC(=O)C5CC(O)CN5C(=O)C(C(C)O)NC4=O)cc3)cc2)cc1 (stereo not shown) [Compound 7] | >16 µg/mL | >16 µg/mL | 0.25 µg/mL (≈ 0.16 µM) | 2 µg/mL (≈ 1.28 µM) | 0.50 ns log10 CFU/kidneys | 5.27 ± 0.17 log10 CFU/kidneys | 0.31 ns log10 CFU/kidneys | 5.08 ± 0.19 log10 CFU/kidneys | 2 µg/mL (≈ 1.28 µM) | >16 µg/mL |  |
| CCC(C)CC(C)CCCCCCCCC(=O)NC1CC(O)C(NCCNC(=O)OCCOC)NC(=O)C2C(O)CCN2C(=O)C(C(O)CCNC(=O)OCCOC)NC(=O)C(C(O)C(O)c2ccc(O)cc2)NC(=O)C2CC(O)CN2C(=O)C(C(C)O)NC1=O (stereo not shown) [Compound 2] | 16 µg/mL (≈ 12.3 µM) | >16 µg/mL |  | 4 µg/mL (≈ 3.08 µM) | 0.33 ns log10 CFU/kidneys | 5.10 ± 0.28 log10 CFU/kidneys | 0.37 ns log10 CFU/kidneys | 5.14 ± 0.25 log10 CFU/kidneys | 4 µg/mL (≈ 3.08 µM) | >16 µg/mL |  |
| CC[C@H](C)C[C@H](C)CCCCCCCCC(=O)N[C@H]1C[C@@H](O)[C@@H](NCCN)NC(=O)[C@@H]2[C@@H](O)CCN2C(=O)[C@H]([C@H](O)CCN)NC(=O)[C@H]([C@H](O)[C@@H](O)c2ccc(O)cc2)NC(=O)[C@@H]2C[C@@H](O)CN2C(=O)[C@H]([C@@H](C)O)NC1=O [Caspofungin, caspofungin, reference compound] |  |  |  |  | −3.14*** log10 CFU/kidneys | 1.63 ± 0.29 log10 CFU/kidneys |  |  |  |  | MIC ([1]; Lodderomyces parapsilosis, ATCC90018, 48 h, 0% mouse serum, read-out: MIC): 0.5 µg/mL (≈ 0.457 µM); MIC ([1]; Lodderomyces parapsilosis, ATCC90018, 48 h, 50% mouse serum, read-out: MIC): 2 µg/mL (≈ 1.83 µM); MIC (A. flavus 626 ATCC 64025; Aspergillus flavus, ATCC64025, 0% mouse serum, read-out: MIC): 0.06 µg/mL (≈ 0.0549 µM); Difference from 24-h control (C. albicans R303; [7]): −4.88*** log10 CFU/kidneys; Mean log10 CFU/kidneys (±SEM) (C. albicans R303; [7]): 0.33 ± 0.33 log10 CFU/kidneys; Difference from 24-h control (C. albicans R303; [8]): −4.48*** log10 CFU/kidneys; Mean log10 CFU/kidneys (±SEM) (C. albicans R303; [8]): 0.73 ± 0.42 log10 CFU/kidneys; Difference from 24-h control (C. albicans R303; [9]): −5.20*** log10 CFU/kidneys; Mean log10 CFU/kidneys (±SEM) (C. albicans R303; [9]): 0.00 ± 0.00 log10 CFU/kidneys; Difference from 24-hr control (C. albicans R303; [10]): −3.59*** log10 CFU/kidneys; Mean log10 CFU/kidneys (±SD) (C. albicans R303; [10]): 1.61 ± 0.23 log10 CFU/kidneys; MIC ([2]; Candida albicans, ATCC90028, 48 h, 0% mouse serum): 0.125 µg/mL (≈ 0.114 µM); MIC ([2]; Candida albicans, ATCC90028, 50% mouse serum, 48 hr, read-out: MIC): 0.06 µg/mL (≈ 0.0549 µM) |
| CCC(C)CC(C)CCCCCCCCC(=O)NC1CC(O)C(NCCNC(=O)CCCCCCCOCCOCCOCCOCCOCCOCCOCCOC)NC(=O)C2C(O)CCN2C(=O)C(C(O)CCNC(=O)CCCCCCCOCCOCCOCCOCCOCCOCCOCCOC)NC(=O)C(C(O)C(O)c2ccc(O)cc2)NC(=O)C2CC(O)CN2C(=O)C(C(C)O)NC1=O (stereo not shown) [Compound 4] | >16 µg/mL | >16 µg/mL | 16 µg/mL (≈ 7.91 µM) |  | 0.48 ns log10 CFU/kidneys | 5.25 ± 0.09 log10 CFU/kidneys | 0.60 ns log10 CFU/kidneys | 5.37 ± 0.11 log10 CFU/kidneys | 8 µg/mL (≈ 3.96 µM) | >16 µg/mL |  |
| CC[C@H](C)C[C@H](C)CCCCCCCCC(=O)N[C@H]1C[C@@H](O)[C@@H](O)NC(=O)[C@@H]2[C@@H](O)CCN2C(=O)[C@H]([C@H](O)CC(N)=O)NC(=O)[C@H]([C@H](O)[C@@H](O)c2ccc(O)cc2)NC(=O)[C@@H]2C[C@@H](O)CN2C(=O)[C@H]([C@@H](C)O)NC1=O [Pneumocandin B0, pneumocandin B0, reference compound] ({Tetradecanoyl(10R,12S-Me2)}-[Orn(4R-OH,5R-OH)]T[Hyp][hTyr(3S-OH,4S-OH)][Gln(3R-OH)][Pro(3S-OH)]; lactam 1-C) | 8 µg/mL (≈ 7.51 µM) | >16 µg/mL | 1 µg/mL (≈ 0.939 µM) | 0.25 µg/mL (≈ 0.235 µM) |  |  |  |  | 0.25 µg/mL (≈ 0.235 µM) | 4 µg/mL (≈ 3.76 µM) |  |
| CCC(C)CC(C)CCCCCCCCC(=O)NC1CC(O)C(OCCOCCOCCOCCOCCOCCOCCOC)NC(=O)C2C(O)CCN2C(=O)C(C(O)CC(N)=O)NC(=O)C(C(O)C(O)c2ccc(O)cc2)NC(=O)C2CC(O)CN2C(=O)C(C(C)O)NC1=O (stereo not shown) [Compound 9] | >16 µg/mL | >16 µg/mL | 2 µg/mL (≈ 1.44 µM) | 8 µg/mL (≈ 5.77 µM) |  |  |  |  | >16 µg/mL | >16 µg/mL |  |
| CCC(C)CC(C)CCCCCCCCC(=O)NC1CC(O)C(OCCCCCCOCCOCCOCCOCCOCCOCCOCCOC)NC(=O)C2C(O)CCN2C(=O)C(C(O)CC(N)=O)NC(=O)C(C(O)C(O)c2ccc(O)cc2)NC(=O)C2CC(O)CN2C(=O)C(C(C)O)NC1=O (stereo not shown) [Compound 10] | >16 µg/mL | >16 µg/mL | 4 µg/mL (≈ 2.69 µM) | 16 µg/mL (≈ 10.8 µM) |  |  |  |  | >16 µg/mL | >16 µg/mL |  |
| CCCCCOc1ccc(-c2ccc(-c3ccc(C(=O)NC4CC(O)C(OCCOCCOCCOCCOCCOCCOCCOC)NC(=O)C5C(O)C(C)CN5C(=O)C(C(C)O)NC(=O)C(C(O)C(O)c5ccc(O)cc5)NC(=O)C5CC(O)CN5C(=O)C(C(C)O)NC4=O)cc3)cc2)cc1 (stereo not shown) [Compound 6] | >16 µg/mL | >16 µg/mL | 0.125 µg/mL (≈ 0.0855 µM) | 0.5 µg/mL (≈ 0.342 µM) |  |  |  |  | 2 µg/mL (≈ 1.37 µM) | 8 µg/mL (≈ 5.47 µM) |  |

Source: patent US20120190613A1, “ECHINOCANDIN DERIVATIVES” (priority 2009, published 2012)
